Measurements: patent publication US12558428B2, “Heterobifunctional compounds and their use in treating disease” (Halda Therapeutics OpCo, Inc., priority 2024, dated 2026)
Like-named read-outs stand apart in the source and are kept apart here.

Legend:
Format in all cases: cell-based
[1] = system: MCF7 cells (ATCC #HTB-22); test: Cellular growth inhibition assay, MCF7 cells purchased from ATCC; conditions: Table 8-A, MCF7 cells purchased from ATCC, six days, CellTiter-Glo, read-out: GI50
Method in brief: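 MCF7 cells in RPMI 1640 with 10% FBS and 0.2 U/ml insulin, seeded at 1,500 cells/well (ATCC) or 225 cells/well (ECACC). Compounds added 24 h later, then 6 days at 37° C. Viability by CellTiter-Glo 2.0 luminescence. GI50 from four-parameter fit.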

[2] = system: T-Rex 293 cells lacking increased expression of estrogen receptor alpha protein; test: Cellular growth inhibition assay, T-Rex 293 cells, (−) doxycycline; conditions: Table 7-A, T-Rex 293 cells without doxycycline (lacking increased ERα expression), 72 hours, CellTiter-Glo, read-out: (−) Dox GI50
Method in brief: (§1)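 Viability read-out was CellTiter-Glo 2.0 luminescence after 72 h compound exposure, normalized to zero luminescence and fitted by four-parameter regression to give GI50. Cells were an ERα-inducible T-Rex 293 clone cultured with or without 3 ng/mL doxycycline in charcoal-stripped, phenol red-free medium.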

[3] = system: T-Rex 293 cells having increased expression of estrogen receptor alpha protein; test: Cellular growth inhibition assay, T-Rex 293 cells, (+) doxycycline; conditions: Table 7-A, T-Rex 293 cells with doxycycline (increased ERα expression), 72 hours, CellTiter-Glo, read-out: (+) Dox GI50
Method in brief: as §1

| Compound | GI50 ([1]; Homo sapiens, MCF7, 144 h) [nM] | GI50 ([2]; T-REx-293, 72 h) [nM] | GI50 ([3]; T-REx-293, 72 h) [nM] | GI50 [1] [nM] | GI50 [2] [nM] | GI50 [3] [nM] |
| --- | --- | --- | --- | --- | --- | --- |
| Cc1sc2c(c1C)C(c1ccc(N3CC4(CCC(O)(CN5CCC(c6ccc([C@@H]7c8ccc(O)cc8CC[C@@H]7c7ccccc7)cc6)CC5)CC4)C3)cc1)=N[C@@H](Cc1ncco1)c1nnc(C)n1-2 [III-211] | < 50 | 50 to 500 | < 50 | – | – | – |
| Cc1sc2c(c1C)C(c1ccc(N3CC(CN4CCC(F)(CC5CN(c6ccc([C@@H]7c8ccc(O)cc8CC[C@@H]7c7ccccc7)cc6)C5)CC4)C3)cc1)=N[C@@H](C)c1nnc(C)n1-2 [III-212] | < 50 | 50 to 500 | < 50 | – | – | – |
| Cc1sc2c(c1C)C(c1ccc(N3CCC(O)(CN4CCN(c5ccc([C@H]6c7ccc(C(=O)O)cc7CC[C@H]6c6ccc(F)cc6F)cc5)CC4)CC3)cc1)=NC(Cc1ncco1)c1nnc(C)n1-2 (stereo partly drawn) [III-213] | > 2500 | > 2500 | > 2500 | – | – | – |
| Cc1sc2c(c1C)C(c1ccc(N3CCC(O)(CN4CCN(c5ccc([C@@H]6c7ccc(C(=O)O)cc7CC[C@@H]6c6ccc(F)cc6F)cc5)CC4)CC3)cc1)=NC(Cc1ncco1)c1nnc(C)n1-2 (stereo partly drawn) [III-214] | < 50 | 50 to 500 | < 50 | – | – | – |
| Cc1sc2c(c1C)C(c1ccc(N3CCN(CC4CCN(c5ccc([C@@H]6c7ccc(O)cc7CC[C@@H]6c6ccccc6)cc5)CC4)CC3)cc1)=N[C@@H](Cn1cccn1)c1nnc(C)n1-2 [III-215] | < 50 | > 2500 | < 50 | – | – | – |
| Cc1sc2c(c1C)C(c1ccc(N3CCN(CC4CCN(c5ccc([C@@H]6c7ccc(O)cc7CC[C@@H]6c6ccccc6)cc5)CC4)CC3)cc1)=N[C@H](Cn1cccn1)c1nnc(C)n1-2 [III-216] | 50 to 500 | > 2500 | > 2500 | – | – | – |
| Cc1sc2c(c1C)C(c1ccc(N3CCC(O)(CN4CCN(c5ccc([C@@H]6c7ccc(O)cc7CC[C@@H]6c6ccccc6)nn5)CC4)CC3)cc1)=N[C@@H](C)c1nnc(C)n1-2 [III-217] | 50 to 500 | 50 to 500 | < 50 | – | – | – |
| Cc1sc2c(c1C)C(c1ccc(N3CCC(O)(CN4CCN(c5ccc([C@H]6c7ccc(O)cc7CC[C@H]6c6ccccc6)nn5)CC4)CC3)cc1)=N[C@@H](C)c1nnc(C)n1-2 [III-218] | 50 to 500 | 50 to 500 | < 50 | – | – | – |
| Cc1sc2c(c1C)C(c1ccc(N3CC(CN4CC(CN5CC(c6ccc([C@@H]7c8ccc(O)cc8CC[C@@H]7c7ccccc7)cc6)C5)C4)C3)cc1)=N[C@@H](C)c1nnc(C)n1-2 [III-219] | 50 to 500 | 50 to 500 | < 50 | – | – | – |
| Cc1sc2c(c1C)C(c1ccc(N3CC(CN4CC(CC5CN(c6ccc([C@@H]7c8ccc(O)cc8CC[C@@H]7c7ccccc7)cc6)C5)C4)C3)cc1)=N[C@@H](C)c1nnc(C)n1-2 [III-220] | 50 to 500 | 50 to 500 | < 50 | – | – | – |
| Cc1sc2c(c1C)C(c1ccc(N3CC(CN4CC(CC5CN(c6ccc([C@@H]7c8ccc(O)cc8CC[C@@H]7c7ccccc7)cc6)C5)C4)C3)cc1)=N[C@@H](C)c1nnc(C)n1-2 [III-221] | – | – | – | < 50 | 50 to 500 | < 50 |
| Cc1sc2c(c1C)C(c1ccc(N3CC4(CCC(F)(CN5CCC(c6ccc([C@@H]7c8ccc(O)cc8CC[C@@H]7c7ccccc7)cc6)CC5)CC4)C3)cc1)=N[C@@H](C)c1nnc(C)n1-2 [III-222] | 50 to 500 | > 2500 | < 50 | – | – | – |
| Cc1sc2c(c1C)C(c1ccc(N3CCC(O)(CN4CCN(c5ccc([C@@H]6c7ccc(O)cc7CC[C@@H]6c6ccccc6)nn5)CC4)CC3)cc1)=N[C@H](Cc1ncco1)c1nnc(C)n1-2 [III-223] | 500 to 2500 | 500 to 2500 | 500 to 2500 | – | – | – |
| Cc1sc2c(c1C)C(c1ccc(N3CCC(O)(CN4CCN(c5ccc([C@H]6c7ccc(O)cc7CC[C@H]6c6ccccc6)nn5)CC4)CC3)cc1)=N[C@H](Cc1ncco1)c1nnc(C)n1-2 [III-224] | 50 to 500 | > 2500 | > 2500 | – | – | – |
| Cc1sc2c(c1C)C(c1ccc(N3CCC(O)(CN4CCN(c5ccc([C@H]6c7ccc(O)cc7CC[C@H]6c6ccccc6)nn5)CC4)CC3)cc1)=N[C@@H](Cc1ncco1)c1nnc(C)n1-2 [III-225] | 50 to 500 | 50 to 500 | < 50 | – | – | – |
| Cc1sc2c(c1C)C(c1ccc(N3CCC(O)(CN4CCN(c5ccc([C@@H]6c7ccc(O)cc7CC[C@@H]6c6ccccc6)nn5)CC4)CC3)cc1)=N[C@@H](Cc1ncco1)c1nnc(C)n1-2 [III-226] | < 50 | 50 to 500 | < 50 | – | – | – |
| Cc1sc2c(c1C)C(c1ccc(N3CC4(CCC(F)(CN5CCC(c6ccc([C@@H]7c8ccc(O)cc8CC[C@@H]7c7ccccc7)cc6)CC5)CC4)C3)cc1)=N[C@@H](Cc1ncco1)c1nnc(C)n1-2 [III-227] | 50 to 500 | > 2500 | < 50 | – | – | – |
| Cc1sc2c(c1C)C(c1ccc(C3CCC4(CCN(CN5CC(c6ccc([C@@H]7c8ccc(O)cc8CC[C@@H]7c7ccccc7)cc6)C5)CC4)C3)cc1)=N[C@@H](C)c1nnc(C)n1-2 (stereo partly drawn) [III-228] | 50 to 500 | 500 to 2500 | < 50 | – | – | – |
| Cc1sc2c(c1C)C(c1ccc(N3CC4(CCC(CN5CCC(c6ccc([C@@H]7c8ccc(O)cc8CC[C@@H]7c7ccccc7)cc6)CC5)CC4)C3)cc1)=N[C@@H](C)c1nnc(C)n1-2 [III-229] | 50 to 500 | 500 to 2500 | < 50 | – | – | – |
| Cc1sc2c(c1C)C(c1ccc(N3CC4(CCC(CN5CCN(c6ccc([C@@H]7c8ccc(O)cc8CC[C@@H]7c7ccccc7)cc6)CC5)CC4)C3)cc1)=N[C@@H](C)c1nnc(C)n1-2 [III-230] | 50 to 500 | > 2500 | < 50 | – | – | – |
| Cc1sc2c(c1C)C(c1ccc(N3CCN(CC4CCN(c5ccc([C@@H]6c7ccc(O)cc7CC[C@@H]6c6ccccc6)cc5)CC4)CC3)cc1)=N[C@H](Cc1nccs1)c1nnc(C)n1-2 [III-231] | 500 to 2500 | > 2500 | > 2500 | – | – | – |
| Cc1sc2c(c1C)C(c1ccc(N3CCN(CC4CCN(c5ccc([C@@H]6c7ccc(O)cc7CC[C@@H]6c6ccccc6)cc5)CC4)CC3)cc1)=N[C@@H](Cc1nccs1)c1nnc(C)n1-2 [III-232] | < 50 | > 2500 | < 50 | – | – | – |
| Cc1sc2c(c1C)C(c1ccc(N3CC(C[C@H]4CC[C@H](CN5CC(c6ccc([C@@H]7c8ccc(O)cc8CC[C@@H]7c7ccccc7)cc6)C5)CC4)C3)cc1)=N[C@@H](C)c1nnc(C)n1-2 [III-233] | 50 to 500 | 500 to 2500 | < 50 | – | – | – |
| Cc1sc2c(c1C)C(c1ccc(C3CN(C[C@H]4CC[C@H](CN5CC(c6ccc([C@@H]7c8ccc(O)cc8CC[C@@H]7c7ccccc7)cc6)C5)CC4)C3)cc1)=N[C@@H](C)c1nnc(C)n1-2 [III-234] | 50 to 500 | 500 to 2500 | < 50 | – | – | – |
| Cc1sc2c(c1C)C(c1ccc(N3CC(CC4(O)CCN(CC5CN(c6ccc([C@@H]7c8ccc(O)cc8CC[C@@H]7c7ccccc7)cc6)C5)CC4)C3)cc1)=N[C@@H](C)c1nnc(C)n1-2 [III-235] | < 50 | 500 to 2500 | < 50 | – | – | – |
| Cc1sc2c(c1C)C(c1ccc(N3CCC(O)(CN4CCN(c5cc(F)c([C@@H]6c7ccc(O)cc7CC[C@@H]6c6ccc(F)cc6)c(F)c5)CC4)CC3)cc1)=N[C@@H](C)c1nnc(C)n1-2 [III-236] | < 50 | 500 to 2500 | < 50 | – | – | – |
| Cc1sc2c(c1C)C(c1ccc(N3CCC(O)(CN4CCN(c5cc(F)c([C@H]6c7ccc(O)cc7CC[C@H]6c6ccc(F)cc6)c(F)c5)CC4)CC3)cc1)=N[C@@H](C)c1nnc(C)n1-2 [III-237] | 50 to 500 | 500 to 2500 | 50 to 500 | – | – | – |
| Cc1sc2c(c1C)C(c1ccc(N3CC(CC4(O)CCN(CC5CN(c6ccc([C@H]7c8ccc(O)cc8CC[C@H]7c7ccc(F)cc7)cc6)C5)CC4)C3)cc1)=N[C@@H](C)c1nnc(C)n1-2 [III-238] | 50 to 500 | 500 to 2500 | 50 to 500 | – | – | – |
